Measurements: patent US20240307350A1, “5-METHOXY-N,N-DIMETHYLTRYPTAMINE (5-MEO-DMT) FOR TREATING DEPRESSION” (GH RESEARCH IRELAND LIMITED, priority 2019, published 2024)

Key:
[1] = test system: patients with personality trait disturbance or anxiety; conditions: LSD as an aid to psychotherapy; cited from earlier work
[2] = test system: patients with alcohol dependence; conditions: therapy with LSD; cited from earlier work
[3] = Clinical trial in healthy volunteers: 5-MeO-DMT and bufotenine plasma levels; format: in vivo, human; conditions: all other samples (1 hour and 3 hours) after inhaled 5-MeO-DMT
Protocol: A clinical trial was performed in which 5-MeO-DMT free base (purity not less than 99%) at different dose levels was administered via inhalation (as described in Example 1) in a single day to healthy volunteers who had prior experiences with the use of synthetic or naturally-occurring psychedelics. The trial was reviewed and approved by the relevant national competent authority and local medical ethics committee. The trial consisted of two parts: Part A, where single doses of 5-MeO-DMT dosage amounts of 2 mg, 6 mg, 12 mg and 18 mg were administered; and Part B, where an initial 5-MeO-DMT dosage amount of 6 mg was administered, and then, unless the participant had already experienced a peak psychedelic experience based on the PPEQ or the supervising physician had decided that further dose increases were inappropriate based on observed side effects, further subsequent dosage amounts of 12 mg and 18 mg were administered with about 3 hours in between each administration. Participants in Part A only received one dose and were not allowed to receive higher doses in later parts of Part A and were not allowed to participate in Part B. Participants were closely monitored for 3.5 hours after the last dose, with additional follow-up visits 1 day and 7 days after dosing. Various safety related measures (e.g., adverse event reporting, safety laboratory analyses, vital signs, ECG, CADSS, PVT, DSST, Prospective Memory Task (PMT)) as well as measures of the intensity of the psychedelic effects (MEQ30, ASC, PPEQ, subjective description of the psychedelic experience) were recorded. Pharmacokinetic analysis of 5-MeO-DMT and bufotenine plasma levels was performed at 1 hour and 3 hours after drug administration in Part A, and at 3 hours after drug administration in Part B.

5-HT2A receptor = 5-HT2A receptor (Homo sapiens, UniProt P28223); conditions: compared with 5-MeO-DMT; cited from earlier work
Chain of 5-HT2A receptor (P28223 whole entry): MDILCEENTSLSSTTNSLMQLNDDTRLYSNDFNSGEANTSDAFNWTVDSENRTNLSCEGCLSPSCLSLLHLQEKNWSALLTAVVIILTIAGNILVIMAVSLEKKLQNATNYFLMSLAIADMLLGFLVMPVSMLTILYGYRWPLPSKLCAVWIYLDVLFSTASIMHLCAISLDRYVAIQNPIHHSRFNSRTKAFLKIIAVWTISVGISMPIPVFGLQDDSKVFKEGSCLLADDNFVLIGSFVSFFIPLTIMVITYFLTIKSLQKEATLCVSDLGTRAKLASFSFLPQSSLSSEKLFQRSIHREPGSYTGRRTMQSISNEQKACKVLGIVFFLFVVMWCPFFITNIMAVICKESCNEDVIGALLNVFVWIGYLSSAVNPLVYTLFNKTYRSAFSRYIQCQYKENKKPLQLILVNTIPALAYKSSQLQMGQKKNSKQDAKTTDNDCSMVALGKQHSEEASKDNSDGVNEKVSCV

SMILES	patients with an outcome of "much improved" or "improved" [1]	patients changed (stop drinking or are much improved) [2] [%]	plasma levels of the 5-MeO-DMT metabolite bufotenine [3]	affinity for the 5-HT2A receptor (5-HT2A receptor)
CCN(CC)C(=O)[C@@H]1C=C2c3cccc4[nH]cc(c34)C[C@H]2N(C)C1 [LSD, lysergic acid diethylamide]	over 90%	50	–	–
CN(C)CCc1c[nH]c2ccc(O)cc12 [bufotenine]	–	–	undetectable	much higher affinity than 5-MeO-DMT
